# In paper PMC7947852, “Identification and Characterization of Chalcone Isomerase Genes Involved in Flavonoid Production in Dracaena cambodiana” (Frontiers in Plant Science, 2021):
# Target: T1, DcCHI1 (Dracaena cambodiana, UniProt A0A8A5KFS9)
# T1 construct: gene CHI1
# T1 sequence (A0A8A5KFS9 1-219): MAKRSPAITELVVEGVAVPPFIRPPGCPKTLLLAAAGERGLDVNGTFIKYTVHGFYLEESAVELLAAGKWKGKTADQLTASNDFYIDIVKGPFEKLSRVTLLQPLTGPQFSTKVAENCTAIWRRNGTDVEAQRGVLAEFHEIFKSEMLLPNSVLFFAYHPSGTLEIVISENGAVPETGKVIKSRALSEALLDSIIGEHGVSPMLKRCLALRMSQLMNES
# Test: HPLC of reaction product
# Format: biochemical
# Settings: 100 mM Tris-HCl pH 7.6, 30 °C, 2 min; 5 µl of 5 mM substrate in 200 µl
row,Compound,HPLC of reaction product
1,O=C(/C=C/c1ccc(O)cc1)c1c(O)cc(O)cc1O [naringenin chalcone],recombinant DcCHI1 could catalyze the formation of naringenin with naringenin chalcone as the substrate
2,O=C1C[C@@H](c2ccc(O)cc2)Oc2cc(O)cc(O)c21 [naringenin],recombinant DcCHI1 could catalyze the formation of naringenin with naringenin chalcone as the substrate
